Reference: patent US7495028B2, “R-bambuterol, its preparation and therapeutic uses” (priority 2002, dated 2009)

Assays:
[1] = system: isolated guinea pig lung strip; assay: Bronchodilating effect on isolated guinea pig lung strip pre-contracted by histamine; assay type: cell-based
Protocol: Test method: Guinea pigs (Dunlin-Hartley, ca. 400 g) were used. After anesthesia, the chest was opened and sections of lung tissue about 3 mm in width, were dissected quickly from a lower lobe with the longitudinal axis of the strip cut parallel to the bronchus. The strips were further divided into two thin strips with approximate dimension of 20×3×3 mm. With threads attached to each end, strips were mounted in organ baths containing aerated Krebs solution at 37° C. A load of between 0.5-1.0 g force was applied by gentle stretching, and the tissue was allowed to equilibrate for 60 min with the solution changed at 20 min intervals. The lung strips were pre-contracted by 10^−5 M histamine, then an equal volume of solution containing R-bambuterol or racemic bambuterol was added cumulatively into the organ bath. The contractions of the lung strips were measured isometrically with force-displacement transducers and recorded.
Based on the pharmacokinetic studies of racemic bambuterol hydrochloride, about 50% of absorbed bambuterol is hydrolyzed to terbutaline, the active-parent form, in plasma. There is little cholinesterase in the lung strip preparation, so neither the test compound nor racemic bambuterol has significant effects. In order to test the compound of invention in vitro on isolated guinea-pig lung tissue, R-bambuterol and racemic bambuterol were administrated orally to guinea pigs at a dose of 8 mg/kg. Four hours later, blood was collected from the animals, and the serum containing the active parent form of the test compounds were prepared. The concentration of the active parent form, i.e. terbutaline, in serum measured using BPLC, was 64-70 ng/ml in the animal treated with R-bambuterol and 62-69 ng/ml in the animal treated with racemic bambuterol. The serum containing the active form of test compound was then added into the organ in a certain volume, so that the final concentration of the active forms of test compounds was 0.25 ng/ml in the organ bath. Concentration-response relationships were obtained using a cumulative dose schedule by adding the same volume of the serum into the organ bath. The test using the serum containing the active form of racemic bambuterol was done in parallel with the test compound in the same manner as described above.

β-2 receptor = settings: Hartley and Middlemis 1971; cited from earlier work

| Structure (SMILES) | Percent of Relaxation ([1]; 0.25 ng/ml active form in organ bath, 10^−5 M histamine pre-contraction) [%] | Percent of Relaxation ([1]; 0.50 ng/ml active form) [%] | Percent of Relaxation ([1]; 0.75 ng/ml active form) [%] | Percent of Relaxation ([1]; 1.00 ng/ml active form) [%] | Percent of Relaxation ([1]; 1.25 ng/ml active form) [%] | Potency as β-2 receptor agonist relative to the S-enantiomer (β-2 receptor) |
| --- | --- | --- | --- | --- | --- | --- |
| CC(C)(C)NC[C@H](O)c1cc(O)cc(O)c1 [Active form of R-bambuterol, R-terbutaline] | 12.4 ± 1.3 | 19.5 ± 2.2 | 43.7 ± 1.8 | 60.1 ± 5.7 | 75.6 ± 8.4 | – |
| CC(C)(C)NC[C@H](O)c1ccc(O)c(CO)c1 [R-enantiomer of albuterol, albuterol] | – | – | – | – | – | approximately 80 times |
